Patent US9944583B2, “Methods for ameliorating and preventing central nervous system inflammation” (THE REGENTS OF THE UNIVERSITY OF CALIFORNIA, priority 2007, dated 2018)
“Also recorded” adds a separate entry of the source.

Key:
[1] = in vivo; cited from earlier work
IL-6 receptors = molecular target: T1, IL-6 receptors (Homo sapiens, UniProt P08887); details: Phase I and II clinical trials, cited from earlier work
T1 construct: host or cells: patients with rheumatoid arthritis / juvenile idiopathic arthritis
T1 sequence (P08887 20-468): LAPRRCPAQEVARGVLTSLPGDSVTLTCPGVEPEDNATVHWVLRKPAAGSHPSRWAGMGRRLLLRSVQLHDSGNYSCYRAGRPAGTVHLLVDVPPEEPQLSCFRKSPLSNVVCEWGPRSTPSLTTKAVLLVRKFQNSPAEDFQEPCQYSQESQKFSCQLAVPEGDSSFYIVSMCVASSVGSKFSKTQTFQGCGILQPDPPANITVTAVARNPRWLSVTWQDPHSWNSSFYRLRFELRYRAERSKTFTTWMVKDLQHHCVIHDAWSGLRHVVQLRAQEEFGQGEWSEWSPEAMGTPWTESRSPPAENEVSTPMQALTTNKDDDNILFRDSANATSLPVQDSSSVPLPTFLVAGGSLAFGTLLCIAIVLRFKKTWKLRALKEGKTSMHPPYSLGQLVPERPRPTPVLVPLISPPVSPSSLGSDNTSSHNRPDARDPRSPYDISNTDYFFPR

[2] = test system: primary neuronal cultures; assay: DHE oxidation (superoxide and/or hydrogen peroxide production) in primary neuronal cultures exposed to ketamine; format: cell-based, mouse
PV-interneurons = assay: parvalbumin and GAD67 immunoreactivity in PV-interneurons in primary neuronal cultures
NFkB = assay: IL-6 induced superoxide production (DHE oxidation) in neuronal cultures with NFkB inhibitor; format: cell-based; details: assessed 4 hours later
Nox2, Nox4, p22phox = assay: Western blot of Nox proteins in brain membranes after in vivo ketamine; details: ketamine 30 mg/kg i.p., two consecutive days
[3] = test system: synaptosomal mitochondria; assay: respiration of synaptosomal mitochondria (oximetry); details: after in vivo ketamine 30 mg/kg, two days
[4] = test system: PV-interneurons in mouse prefrontal cortex; assay: two-day ketamine treatment of mice: oxidized DHE, parvalbumin and GAD67 in prefrontal cortex; format: in vivo; details: 24 h following a single ketamine exposure
Nox2 = assay: Nox expression in primary neuronal cultures (immunocytochemistry, Western blot)
IL-6 mRNA = assay: cytokine mRNA by RT-PCR in ketamine-treated primary neuronal cultures; details: ketamine 0.5 μM, up to 24 h
primary cultures = details: ketamine 0.5 μM, 1 h and 3 h
NADPH oxidase (Nox) = assay: Nox activity in synaptosomes by NADPH-dependent oxygen consumption (oximetry); format: biochemical, mouse; details: ketamine 30 mg/kg in vivo on two consecutive days
Protocol: Synaptosomal preparations. […] Mice were euthanized by exposure to a lethal dose of inhaled halothane, followed by cervical dislocation. Brains were rapidly removed, cortices dissected and homogenized in 10 volumes of ice-cold isolation buffer (0.32M sucrose, 1 mM EDTA, 10 mM Tris-HCl buffer, pH 7.4, 10 mM glucose). The homogenate was centrifuged at 3100 rpm for 3 min at 4° C., and the supernatant collected, and the pellet was re-homogenized in half the volume of isolation buffer and centrifuged again. Synaptosomal were then isolated as described (see reference 30, below) modified as follows, the pooled supernatants were mixed with PERCOLL™ (Sigma, St. Louis, Mo.) to a final concentration of 15%, and then layered onto a step gradient of 23% and 40% PERCOLL™, and centrifuged at 16,000 rpm for 5 minutes at 4° C. The uppermost band was extracted, rinsed in isolation buffer, centrifuged and resuspended in synaptosomal buffer (120 mM NaCl, 4.7 mM KCl, 2.2 mM CaCl2, 1.2 mM MgCl2, 25 mM HEPES, 1.2 mM MgSO4, 1.2 mM KH2PO4, 10 mM glucose).
Oxygen consumption studies (oximetry). O2 consumption studies on synaptosomes are carried out. […] Studies were carried out to optimize the concentration of synaptosomal protein required, and to confirm stability and viability of synaptosomes and their mitochondria for up to 6 h.

[5] = test system: PV-interneurons in mouse prefrontal cortex; assay: two-day ketamine treatment of mice: oxidized DHE, parvalbumin and GAD67 in prefrontal cortex; format: in vivo
Protocol: Animals and treatments. […] Male C57BL6 mice were obtained from Jackson Labs, Bar Harbor, Me., at 8-12 weeks and housed in our facility until 15 weeks when they were used for experiments. Ketamine (30 mg/kg) was applied intraperitoneally (IP) on two consecutive days at around 4 pm. DHE was applied 30 min after the last ketamine injection as described (19, 20). Briefly, two serial i.p. injections of freshly prepared dihydroethidium (27 mg/kg) are given at 30 minute intervals. Eighteen hours later, mice are anesthetized with inhaled halothane, and perfused intracardially with cold saline followed by 4% paraformaldehyde in PBS. The Nox inhibitor, apocynin (5 mg/kg/day) was given in the drinking water for a total of seven days, with an assumed intake of […] H2O/mouse/day, and ketamine was applied on the last two days. […] All animal studies were approved by the Animal Care Program at the University of California, San Diego, and are in accordance the PHS Guide for the Care and Use of Laboratory Animals, USDA Regulations, and the AVMA Panel on Euthanasia.
Immunohistochemistry: Brains were frontally sliced in a vibratome into 50 μm coronal sections encompassing the prefrontal cortex region (from Bregma 2.0 to 1.3). Sequential slices were processed for floating-section double immunohistochemistry for the detection of parvalbumin and GAD67. Antigen retrieval was performed by incubation of the slices in 1% sodium borohydride for 15 min as described (see reference 34, below), followed by washing in PBS and incubation in 10% normal goat serum in PBS for 16 h at 4° C. Primary antibodies (Calbindin: 1:5000: Calretinin: 1:2000; Parvalbumin: 1:3000, all rabbit polyclonals from Swant, Bellinzona, Switzerland. GAD67: 1:1000, from Chemicon-Millipore, Temecula, Calif.) were diluted in 2% normal goat serum in PBS and applied to the slices for 18 h at 4° C., after which slices were washed in PBS and incubated in a 1:1000 dilution of ALEXAFLUOR™ (Molecular Probes, Invitrogen, Carlsbad, Calif.) conjugated goat anti-rabbit (568) or goat anti-mouse (488) antibodies for 1 hr at room temperature (rt). Slices were washed in PBS and mounted sequentially in glass slides using […]™ (Vector Laboratories, Burlingame, Calif.), covered with a coverslip and allowed to dry for at least 24 h before confocal imaging.
Six slices were analyzed per animal.
Analysis of superoxide and/or hydrogen peroxide production by confocal imaging of in vivo dihydroethidium (DHE) oxidation. Mice will be injected intraperitoneally (i.p.) with dihydroethidium.

[6] = 2-day ketamine, saline 30.1±14.3
[7] = ketamine 30 mg/kg i.p., two consecutive days

Compound: CNTO-328: human-mouse chimeric monoclonal antibody (Mab) to IL-6 (Centocor)
- plasma half-life [1]: roughly 17 days

Compound: Tocilizumab: therapeutic humanized monoclonal antibody, specific antagonist for IL-6 receptors
- rheumatoid arthritis disease activity (IL-6 receptors; 2, 4, 5, 8 or 10 mg/kg, dose-dependent): reduced rheumatoid arthritis disease activity significantly
- safety and tolerability (IL-6 receptors): generally safe and well tolerated
- plasma half-life [1]: long plasma half-life

Compound: NCc1cc(=O)[nH]o1 [muscimol]
- effect on ketamine-mediated increase in oxidized DHE ([2]; co-exposure with ketamine 0.5 μM 24 h, muscimol 10 μM, C3 20 μM, apocynin 0.5 mM): prevented; also recorded: complete block
- effect on ketamine-mediated loss of parvalbumin and GAD67 immunoreactivity in PV-interneurons (PV-interneurons; co-exposure with ketamine 24 h, muscimol 10 μM, C3, apocynin 0.5 mM): prevented; also recorded: preservation

Compound: H2N-Ala-Ala-Val-Ala-Leu-Leu-Pro-Ala-Val-Leu-Leu-Ala-Leu-Leu-Ala-Pro-Val-Gln-Arg-Lys-Arg-Gn-Lvs-Leu-Met-Pro-OH (H-AAVALLPAVLLALLAPVQRKRQKLMP-OH) [SN50]
- effect on IL-6 induced superoxide production (DHE oxidation) (NFkB): blocks

Compound: CNC1(c2ccccc2Cl)CCCCC1=O (centres unmarked) [ketamine]
- expression of Nox2 and p22phox in membrane preparations of cortical tissue (Nox2, Nox4, p22phox): significant increase
- metabolic activities of synaptosomal mitochondria [3]: not affected
- oxidized DHE (neuronal superoxide and/or hydrogen peroxide production) ([2]; ketamine 0.5 μM, 24 h): significant increase; also recorded: pronounced increase
- effects on PV-interneurons in the prefrontal region [4]: not present
- Nox4 expression (Nox2; after ketamine treatment, cultures): did not see changes
- Nox2 immunoreactivity, fluorescence quantification (Nox2; ketamine 0.5 μM, 24 h, control 100+/−8%): 170+/−15%
- parvalbumin immunoreactivity (PV-interneurons; ketamine 0.5 μM, 24 h): reduction
- levels of other pro-inflammatory cytokines (IL-1, TNF mRNA) (IL-6 mRNA): without affecting
- superoxide signals (EPR, DIPPMPO) (primary cultures): rapid increase
- Nox activity in synaptosomes (NADPH oxidase (Nox)): pronounced increase
- GAD67 in calbindin cells, mean intensity±SD [5, 6]: 44.2±14.5
- GAD67 in calretinin cells, mean intensity+SD [5, 6]: 44.2±14.5
- calretinin, mean intensity+SD ([5]; 2-day ketamine, saline 133.6±35.6): 139.4±28.7
- calbindin, mean intensity±SD ([5]; 2-day ketamine, saline 215.6±32.1): 231.6±25.6
- oxidized DHE in brain / PFC [5, 7]: widespread increase; also recorded: pronounced increase
- parvalbumin and GAD67 immunoreactivity in PV-interneurons of PFC [5, 7]: significant reduction; also recorded: pronounced decrease
